The values below come from patent US11814367B2, “Inhibitors of glycogen synthase 1 (GYS1) and methods of use thereof” (Maze Therapeutics, Inc., priority 2021, dated 2023).

Structures are written as SMILES.

In experiment [1] the target is hGYS2 enzyme (recombinant hGYS2/GN1 protein) (Homo sapiens (Human), UniProt P54840). Nature of the experiment: GYS2 coupled enzyme assay (PK/LDH). In kind it is biochemical. Conditions: geometric mean of at least 2 assay runs on separate days, read-out: Avg_IC50. The method in brief:
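Continuous PK/LDH-coupled readout of NADH loss at 340 nm over 10 min, with 200 nM hGYS2/GN1 and 2 mM each of UDP-glucose, glucose-6-phosphate and PEP, in 50 mM Tris pH 7.5 with 0.2% glycogen and 2.5% DMSO. Slopes were normalized to controls and IC50s fit to a Hill curve from duplicates.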

Experiment [2] addresses hGYS1 enzyme (recombinant hGYS1/GN1 protein) (Homo sapiens (Human), UniProt P13807). Description: GYS1 coupled enzyme assay (PK/LDH). In kind it is biochemical. As to conditions: hGYS1/GN1 50 nM, UDP-Glucose 0.8 mM, G6P 1 mM; geometric mean of at least 2 runs.

Sequence of hGYS2 enzyme (recombinant hGYS2/GN1 protein) (P54840 whole entry): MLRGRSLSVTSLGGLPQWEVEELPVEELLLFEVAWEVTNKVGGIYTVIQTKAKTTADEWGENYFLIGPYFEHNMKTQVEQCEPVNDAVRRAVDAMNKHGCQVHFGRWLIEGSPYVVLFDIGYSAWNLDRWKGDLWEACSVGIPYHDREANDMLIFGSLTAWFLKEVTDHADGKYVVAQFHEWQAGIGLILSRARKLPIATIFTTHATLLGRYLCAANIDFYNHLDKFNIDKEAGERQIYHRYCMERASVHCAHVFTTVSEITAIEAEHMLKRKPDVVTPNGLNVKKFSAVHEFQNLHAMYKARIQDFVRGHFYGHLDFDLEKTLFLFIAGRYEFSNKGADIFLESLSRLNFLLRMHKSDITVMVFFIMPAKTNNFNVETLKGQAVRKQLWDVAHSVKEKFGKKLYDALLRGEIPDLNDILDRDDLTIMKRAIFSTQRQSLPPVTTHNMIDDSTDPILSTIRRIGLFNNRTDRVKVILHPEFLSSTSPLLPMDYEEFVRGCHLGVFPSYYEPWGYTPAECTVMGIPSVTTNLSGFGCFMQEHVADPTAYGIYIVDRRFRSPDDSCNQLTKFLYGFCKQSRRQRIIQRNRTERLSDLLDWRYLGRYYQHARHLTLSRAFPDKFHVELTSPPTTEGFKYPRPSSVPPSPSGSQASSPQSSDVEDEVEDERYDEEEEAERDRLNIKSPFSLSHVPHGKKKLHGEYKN
Sequence of hGYS2 enzyme (recombinant hGYS2/GN1 protein) (P46976 whole entry partner): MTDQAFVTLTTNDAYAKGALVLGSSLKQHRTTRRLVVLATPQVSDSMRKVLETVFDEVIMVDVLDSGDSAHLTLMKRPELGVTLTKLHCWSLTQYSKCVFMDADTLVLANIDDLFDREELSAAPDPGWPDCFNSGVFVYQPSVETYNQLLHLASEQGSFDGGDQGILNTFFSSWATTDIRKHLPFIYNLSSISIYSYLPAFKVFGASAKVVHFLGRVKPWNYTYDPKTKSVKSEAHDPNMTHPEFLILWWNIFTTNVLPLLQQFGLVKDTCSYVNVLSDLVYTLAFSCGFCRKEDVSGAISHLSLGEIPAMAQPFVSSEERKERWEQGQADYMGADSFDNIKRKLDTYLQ
Sequence of hGYS1 enzyme (recombinant hGYS1/GN1 protein) (P13807 whole entry): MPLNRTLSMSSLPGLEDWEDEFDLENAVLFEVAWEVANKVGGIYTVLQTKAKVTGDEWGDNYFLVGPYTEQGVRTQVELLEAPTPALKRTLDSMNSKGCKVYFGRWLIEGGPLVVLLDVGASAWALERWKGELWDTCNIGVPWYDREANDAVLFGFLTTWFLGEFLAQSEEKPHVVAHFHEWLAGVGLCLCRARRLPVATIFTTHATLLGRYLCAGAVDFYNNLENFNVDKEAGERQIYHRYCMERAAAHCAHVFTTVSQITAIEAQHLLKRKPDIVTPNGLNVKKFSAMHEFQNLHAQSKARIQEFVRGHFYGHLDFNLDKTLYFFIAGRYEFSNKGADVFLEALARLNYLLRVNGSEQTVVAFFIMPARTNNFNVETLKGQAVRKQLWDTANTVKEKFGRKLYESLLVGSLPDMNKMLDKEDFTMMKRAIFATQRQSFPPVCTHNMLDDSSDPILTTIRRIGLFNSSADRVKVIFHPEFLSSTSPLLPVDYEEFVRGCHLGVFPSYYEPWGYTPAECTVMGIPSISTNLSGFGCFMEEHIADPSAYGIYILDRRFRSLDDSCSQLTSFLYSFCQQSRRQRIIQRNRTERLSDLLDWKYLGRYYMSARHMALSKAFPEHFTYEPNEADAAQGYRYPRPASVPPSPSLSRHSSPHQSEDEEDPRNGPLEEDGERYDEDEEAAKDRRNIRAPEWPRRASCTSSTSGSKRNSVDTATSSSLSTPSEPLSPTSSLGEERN
Sequence of hGYS1 enzyme (recombinant hGYS1/GN1 protein) (P46976 whole entry partner): as the sequence (P46976 whole entry partner) above

On to `CC(C)c1ccc([C@@H](NC(=O)[C@@H]2C[C@@H](F)CN2C(=O)CCc2cnc3[nH]ccc3c2)c2ccccc2)cc1` [Compound 134, (2S,4R)-4-fluoro-N-[(S)-phenyl[4-(propan-2-yl)phenyl]methyl]-1-(3-{1H-pyrrolo[2,3-b]pyridin-5-yl}propanoyl)pyrrolidine-2-carboxamide], for which the values for the IC50 in experiment [1] and in experiment [2] were over 100 µM and 41 nM, respectively.

For `COc1cccnc1CCC(=O)N1C[C@H](F)C[C@H]1C(=O)N[C@@H](c1ccccc1)c1ccc(C(C)C)cc1` [Compound 135, (2S,4R)-4-fluoro-1-[3-(3-methoxypyridin-2-yl)propanoyl]-N-[(S)-phenyl[4-(propan-2-yl)phenyl]methyl]pyrrolidine-2-carboxamide], the results for the IC50 in experiment [1] and in experiment [2] were over 100 µM and 44 nM, respectively.

Regarding `CC(C)c1ccc([C@@H](NC(=O)[C@@H]2C[C@@H](F)CN2C(=O)Cc2cc3ccccc3n2C)c2ccccc2)cc1` [Compound 137, (2S,4R)-4-fluoro-1-[2-(1-methyl-1H-indol-2-yl)acetyl]-N-[(S)-phenyl[4-(propan-2-yl)phenyl]methyl]pyrrolidine-2-carboxamide], the IC50 was over 100 µM in experiment [1] and 17 nM in experiment [2].

As to `CC(=O)N1CC[C@@H](C(=O)N2C[C@H](F)C[C@H]2C(=O)N[C@@H](c2ccccc2)c2ccc(C(C)C)cc2)[C@@H]1c1cccnc1` [Compound 140, (2S,4R)-1-[(2R,3R)-1-acetyl-2-(pyridin-3-yl)pyrrolidine-3-carbonyl]-4-fluoro-N-[(S)-phenyl[4-(propan-2-yl)phenyl]methyl]pyrrolidine-2-carboxamide], the figures for the IC50 in experiment [1] and in experiment [2] were over 100 µM and 67 nM, respectively.

Take `CC(=O)N1CCOC(C(=O)N2C[C@H](F)C[C@H]2C(=O)N[C@@H](c2ccccc2)c2ccc(C(C)C)cc2)C1` (stereo partly drawn) [Compound 141, (2S,4R)-1-(4-acetylmorpholine-2-carbonyl)-4-fluoro-N-[(S)-phenyl[4-(propan-2-yl)phenyl]methyl]pyrrolidine-2-carboxamide]: the IC50 in experiment [1] is over 100 µM; in experiment [2], 181 nM.

As for `CC(=O)N(C)CC(=O)N1C[C@H](F)C[C@H]1C(=O)N[C@@H](c1ccccc1)c1ccc(C(C)C)cc1` [Compound 142, (2S,4R)-4-fluoro-1-[2-(N-methylacetamido)acetyl]-N-[(S)-phenyl[4-(propan-2-yl)phenyl]methyl]pyrrolidine-2-carboxamide], the IC50 in experiment [1] was over 100 µM; in experiment [2], 77 nM.

For the compound `CC(=O)N1CCC(C(=O)N2C[C@H](F)C[C@H]2C(=O)N[C@@H](c2ccccc2)c2ccc(C(C)C)cc2)CC1` [Compound 144, (2S,4R)-1-(1-acetylpiperidine-4-carbonyl)-4-fluoro-N-[(S)-phenyl[4-(propan-2-yl)phenyl]methyl]pyrrolidine-2-carboxamide], the results for the IC50 in experiment [1] and in experiment [2] were over 100 µM and 168 nM, respectively.

On to `CC(=O)N1CC(C)(C(=O)N2C[C@H](F)C[C@H]2C(=O)N[C@@H](c2ccccc2)c2ccc(C(C)C)cc2)C1` [Compound 146, (2S,4R)-1-(1-acetyl-3-methylazetidine-3-carbonyl)-4-fluoro-N-[(S)-phenyl[4-(propan-2-yl)phenyl]methyl]pyrrolidine-2-carboxamide], for which the IC50 in experiment [1] is over 100 µM; in experiment [2] it was 206 nM.

As to `CC(=O)N1CCC(C(=O)N2C[C@H](F)C[C@H]2C(=O)N[C@@H](c2ccccc2)c2ccc(C(C)C)cc2)C1` (stereo partly drawn) [Compound 147, (2S,4R)-1-(1-acetylpyrrolidine-3-carbonyl)-4-fluoro-N-[(S)-phenyl[4-(propan-2-yl)phenyl]methyl]pyrrolidine-2-carboxamide], the IC50 in experiment [1] was over 100 µM; in experiment [2], 127 nM.

As to `CC(=O)N1CC2(CC(C(=O)N3C[C@H](F)C[C@H]3C(=O)N[C@@H](c3ccccc3)c3ccc(C(C)C)cc3)=NO2)C1` [Compound 151, (2S,4R)-1-{2-acetyl-5-oxa-2,6-diazaspiro[3.4]oct-6-ene-7-carbonyl}-4-fluoro-N-[(S)-phenyl[4-(propan-2-yl)phenyl]methyl]pyrrolidine-2-carboxamide], the IC50 in experiment [1] was over 100 µM; in experiment [2], 241 nM.
